Measured values as given in patent publication US20230183193A1, “4-DIFLUOROMETHYL BENZOYL AMIDES WITH HERBICIDAL ACTION” (BAYER CROPSCIENCE AKTIENGESELLSCHAFT, priority 2017, published 2023).

What was measured:
Abutilon theophrasti [1] = experiment: Post-emergence herbicidal action, ABUTH; type: in vivo; conditions: 80 g/ha, Table D
Procedure, shortened: (§1)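 Herbicidal effect is rated visually as percent versus untreated plants (100% = dead, 0% = like control) about 3 weeks after spraying. Plants were sown in sandy loam in the greenhouse and sprayed on green parts at the one-leaf stage, 2 to 3 weeks post-sowing.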

Matricaria inodora = experiment: Pre-emergence herbicidal action, MATIN; type: in vivo; conditions: for Herbicidal efficacy against MATIN: Table K
Procedure, shortened: (§2)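 Percent herbicidal activity rated by eye 3 weeks after pre-emergence soil-surface application, compared with untreated pots. Seeds sat under sandy loam; sprays carried 0.2% wetting agent.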

Stellaria media [2] = experiment: Post-emergence herbicidal action, STEME; type: in vivo
Procedure, shortened: as §1

Viola tricolor [3] = experiment: Post-emergence herbicidal action, VIOTR; type: in vivo
Procedure, shortened: as §1

ECHCG [4] = experiment: Post-emergence herbicidal action, ECHCG; type: in vivo; conditions: 80 g/ha, Table C
Procedure, shortened: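 Weed and crop plants grown in sandy loam in the greenhouse, treated at the one-leaf stage 2–3 weeks after sowing. Damage scored visually after about 3 weeks vs untreated controls (0% = control, 100% = dead).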

Abutilon theophrasti [5] = experiment: Pre-emergence herbicidal action, ABUTH; type: in vivo; conditions: for Herbicidal efficacy against ABUTH: Table K
Procedure, shortened: as §2

Stellaria media [6] = experiment: Pre-emergence herbicidal action, STEME; type: in vivo; conditions: dosage 320 g/ha, scored visually after 3 weeks vs untreated controls
Procedure, shortened: as §2

Cyperus serotinus = experiment: Pre-emergence herbicidal action, CYPES; type: in vivo
Procedure, shortened: as §2

Setaria viridis [7] = experiment: Post-emergence herbicidal action, SETVI; type: in vivo
Procedure, shortened: as §1

Pharbitis purpureum = experiment: Post-emergence herbicidal action, PHBPU; type: in vivo; conditions: 80 g/ha, Table D
Procedure, shortened: as §1

Polygonum convolvulus = experiment: Pre-emergence herbicidal action, POLCO; type: in vivo; conditions: Table K
Text: 1. Pre-Emergence Herbicidal Action Against Harmful Plants Seeds of monocotyledonous and dicotyledonous weed plants and crop plants are laid out in sandy loam soil in wood-fiber pots and covered with soil. The compounds of the invention, formulated in the form of wettable powders (WP) or as emulsion concentrates (EC), are then applied to the surface of the covering soil in the form of an aqueous suspension or emulsion at a water application rate equating to […], with addition of 0.2% wetting agent. After the treatment, the pots are placed in a greenhouse and kept under good growth conditions for the trial plants. The damage to the test plants is scored visually after a test period of 3 weeks by comparison with untreated controls (herbicidal activity in percent (%): 100% activity=the plants have died, 0% activity=like control plants).
For comparison, the herbicidal activity of numerous compounds according to the invention was tested with the structurally closest compounds known from the documents WO 2011/035874, WO 2012/028579 and WO 2012/126932, by the pre- and post-emergence method.

Viola tricolor [8] = experiment: Pre-emergence herbicidal action, VIOTR; type: in vivo; conditions: for Herbicidal efficacy against VIOTR: Table K
Procedure, shortened: as §2

Amaranthus retroflexus [9] = experiment: Pre-emergence herbicidal action, AMARE; type: in vivo; conditions: dosage 320 g/ha, scored visually after 3 weeks vs untreated controls
Procedure, shortened: as §2

Avena fatua [10] = experiment: Post-emergence herbicidal action, AVEFA; type: in vivo; conditions: 20 g/ha
Procedure, shortened: as §1

Avena fatua [11] = experiment: Pre-emergence herbicidal action, AVEFA; type: in vivo
Procedure, shortened: as §2

Setaria viridis [12] = experiment: Pre-emergence herbicidal action, SETVI; type: in vivo
Procedure, shortened: as §2

ECHCG [13] = experiment: Pre-emergence herbicidal action, ECHCG; type: in vivo, Echinochloa crus-galli
Alopecurus myosuroides [14] = experiment: Post-emergence herbicidal action, ALOMY; type: in vivo
Procedure, shortened: as §1

Amaranthus retroflexus [15] = experiment: Post-emergence herbicidal action, AMARE; type: in vivo; conditions: 80 g/ha, Table D
Procedure, shortened: as §1

Alopecurus myosuroides [16] = experiment: Pre-emergence herbicidal action, ALOMY; type: in vivo; conditions: 320 g/ha
Procedure, shortened: as §2

[17] = dosage 320 g/ha, scored visually after 3 weeks vs untreated controls

CSc1c(C(F)F)ccc(C(=O)Nc2ncnn2C)c1C [Example 4-1, 4-(difluoromethyl)-2-methyl-3-(methylsulfanyl)-N-(1-methyl-1H-1,2,4-triazol-5-yl)benzamide]
herbicidal activity ABUTH (Abutilon theophrasti [1]): 100% | Herbicidal efficacy against MATIN (Matricaria inodora; dosage 80 g/ha): 80 | Herbicidal efficacy against MATIN (Matricaria inodora; dosage 320 g/ha): 90 | herbicidal activity MATIN (Matricaria inodora; [17]): 90% | Herbicidal efficacy against STEME (Stellaria media [2]; 20 g/ha): 80 | Herbicidal activity STEME (Stellaria media [2]; 80 g/ha, Table D): 100% | Herbicidal efficacy against VIOTR (Viola tricolor [3]; 20 g/ha): 100 | herbicidal activity VIOTR (Viola tricolor [3]; 80 g/ha, Table D): 100% | Herbicidal activity ECHCG (ECHCG [4]): 90% | Herbicidal efficacy against ABUTH (Abutilon theophrasti [5]; dosage 80 g/ha): 90 | Herbicidal efficacy against ABUTH (Abutilon theophrasti [5]; dosage 320 g/ha): 100 | herbicidal activity ABUTH (Abutilon theophrasti [5]; [17]): 100% | Herbicidal activity STEME (Stellaria media [6]): 90% | Herbicidal efficacy against CYPES (Cyperus serotinus; 80 g/ha): 30 | Herbicidal efficacy against CYPES (Cyperus serotinus; 320 g/ha): 50 | Herbicidal efficacy against SETVI (Setaria viridis [7]; 20 g/ha): 60 | herbicidal activity SETVI (Setaria viridis [7]; 80 g/ha, Table C): 100% | Herbicidal activity PHBPU (Pharbitis purpureum): 100% | Herbicidal efficacy against POLCO (Polygonum convolvulus; dosage 80 g/ha): 30 | Herbicidal efficacy against POLCO (Polygonum convolvulus; dosage 320 g/ha): 30 | Herbicidal efficacy against VIOTR (Viola tricolor [8]; dosage 80 g/ha): 100 | Herbicidal efficacy against VIOTR (Viola tricolor [8]; dosage 320 g/ha): 100 | herbicidal activity VIOTR (Viola tricolor [8]; [17]): 100% | herbicidal activity AMARE (Amaranthus retroflexus [9]): 100% | Herbicidal efficacy against AVEFA (Avena fatua [10]): 20 | Herbicidal efficacy against AVEFA (Avena fatua [11]; 80 g/ha): 30 | Herbicidal efficacy against AVEFA (Avena fatua [11]; 320 g/ha): 80 | herbicidal activity AVEFA (Avena fatua [11]; [17]): 80% | Herbicidal efficacy against SETVI (Setaria viridis [12]; 80 g/ha): 80 | Herbicidal efficacy against SETVI (Setaria viridis [12]; 320 g/ha): 100 | herbicidal activity SETVI (Setaria viridis [12]; [17]): 100% | Herbicidal efficacy against ECHCG (ECHCG [13]; 80 g/ha): 70 | Herbicidal efficacy against ECHCG (ECHCG [13]; 320 g/ha): 100 | Herbicidal efficacy against ALOMY (Alopecurus myosuroides [14]; 20 g/ha): 70 | herbicidal activity ALOMY (Alopecurus myosuroides [14]; 80 g/ha, Table C): 80% | herbicidal activity AMARE (Amaranthus retroflexus [15]): 100% | Herbicidal efficacy against ALOMY (Alopecurus myosuroides [16]): 40
